Test results as given in patent US20140017216A1, “PESTICIDAL MIXTURES” (BAYER CROPSCIENCE LP, priority 2011, published 2014).

Tested on: southern armyworm (Spodoptera eridania)
Assay: Test B.7: control of southern armyworm, leaf-dip on lima bean leaves, larval mortality
Type: in vivo
Details: single active, neonate larvae, 4 days
Description: For evaluating control of southern armyworm (Spodoptera eridania) the test unit consists of Petri dishes containing eight-day-old Henderson bush lima bean leaves and 10 neonate S. eridania larvae.
The compounds or mixtures are formulated using a solution containing […] water and 0.05 vol % of a surfactant (Kinetic). Leaves are dipped into different concentrations of formulated compounds or mixtures and allowed to dry. Four replications are performed.
For experimental mixtures in these tests identical volumes of both mixing partners at the desired concentrations respectively, are mixed together.
After application, Petri dishes are incubated in the dark at 26±1° C., for 4 days. Larval mortality is visually assessed.
Metaflumizone at rates of 2.5 and 5.0 kg ai/ha and Streptomyces galbus strain M1064 at rates of 0.69. 1.39, and 2.79 kg ai/ha were tested singly and in combination for control of southern armyworm, Spodoptera eridania in the laboratory.

With `N#Cc1ccc(CC(=NNC(=O)Nc2ccc(OC(F)(F)F)cc2)c2cccc(C(F)(F)F)c2)cc1` (mixture of isomers) [Metaflumizone, metaflumizone] as the molecule, how does the “Observed Mortality” value (application rate 2.5 kg ai/ha) read?
The value was 15.0%.

And the “Observed Mortality” value (application rate 5.0 kg ai/ha)?
Its value is 47.5%.
